For 21 compounds, IC50 results are on record in patent US7176199B2, “Aryl-substituted alicyclic compound and medical composition comprising the same” (Dainippon Pharmaceutical Co., Ltd., priority 2001, dated 2007).

The target in one test is αvβ3 integrin (Homo sapiens, UniProt P05106+P06756). In words: Assay for the inhibition of αvβ3 integrin binding (vitronectin as ligand). Details: purchased Chemicon International, Inc., USA. Conditions: inhibition of specific binding of biotinylated human vitronectin to immobilized αvβ3 integrin. The protocol: Experiment 1: Assay for the Inhibition of αvβ3 integrin binding
Chain of αvβ3 integrin (P06756 31-889 limits assumed): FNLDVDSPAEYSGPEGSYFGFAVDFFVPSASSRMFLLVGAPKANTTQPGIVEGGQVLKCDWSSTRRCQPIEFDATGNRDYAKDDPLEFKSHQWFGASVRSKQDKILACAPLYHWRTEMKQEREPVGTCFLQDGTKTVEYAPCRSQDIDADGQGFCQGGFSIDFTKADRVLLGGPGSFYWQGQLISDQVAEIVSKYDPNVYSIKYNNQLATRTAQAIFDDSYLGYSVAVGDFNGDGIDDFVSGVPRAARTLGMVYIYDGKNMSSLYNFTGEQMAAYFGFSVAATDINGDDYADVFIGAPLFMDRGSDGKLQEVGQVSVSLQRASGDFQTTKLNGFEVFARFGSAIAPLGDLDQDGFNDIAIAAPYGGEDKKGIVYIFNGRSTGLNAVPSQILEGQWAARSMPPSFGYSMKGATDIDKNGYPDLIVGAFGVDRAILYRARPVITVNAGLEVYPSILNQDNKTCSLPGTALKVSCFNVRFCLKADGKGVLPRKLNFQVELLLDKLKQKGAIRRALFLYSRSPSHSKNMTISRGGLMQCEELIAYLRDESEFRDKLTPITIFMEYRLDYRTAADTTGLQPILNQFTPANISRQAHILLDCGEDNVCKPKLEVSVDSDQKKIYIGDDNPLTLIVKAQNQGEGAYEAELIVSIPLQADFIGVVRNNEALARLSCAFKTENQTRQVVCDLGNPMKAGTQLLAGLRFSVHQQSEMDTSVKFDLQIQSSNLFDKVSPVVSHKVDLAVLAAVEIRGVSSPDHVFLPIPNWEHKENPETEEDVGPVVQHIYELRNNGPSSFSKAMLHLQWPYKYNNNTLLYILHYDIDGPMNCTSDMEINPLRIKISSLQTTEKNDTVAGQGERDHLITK
Chain of αvβ3 integrin (P06756 891-1048 partner limits assumed): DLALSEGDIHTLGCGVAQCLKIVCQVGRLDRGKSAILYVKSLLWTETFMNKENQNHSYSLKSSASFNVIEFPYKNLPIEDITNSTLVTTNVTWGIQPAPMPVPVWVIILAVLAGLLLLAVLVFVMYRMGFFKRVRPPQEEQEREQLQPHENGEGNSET
Chain of αvβ3 integrin (P05106 27-788): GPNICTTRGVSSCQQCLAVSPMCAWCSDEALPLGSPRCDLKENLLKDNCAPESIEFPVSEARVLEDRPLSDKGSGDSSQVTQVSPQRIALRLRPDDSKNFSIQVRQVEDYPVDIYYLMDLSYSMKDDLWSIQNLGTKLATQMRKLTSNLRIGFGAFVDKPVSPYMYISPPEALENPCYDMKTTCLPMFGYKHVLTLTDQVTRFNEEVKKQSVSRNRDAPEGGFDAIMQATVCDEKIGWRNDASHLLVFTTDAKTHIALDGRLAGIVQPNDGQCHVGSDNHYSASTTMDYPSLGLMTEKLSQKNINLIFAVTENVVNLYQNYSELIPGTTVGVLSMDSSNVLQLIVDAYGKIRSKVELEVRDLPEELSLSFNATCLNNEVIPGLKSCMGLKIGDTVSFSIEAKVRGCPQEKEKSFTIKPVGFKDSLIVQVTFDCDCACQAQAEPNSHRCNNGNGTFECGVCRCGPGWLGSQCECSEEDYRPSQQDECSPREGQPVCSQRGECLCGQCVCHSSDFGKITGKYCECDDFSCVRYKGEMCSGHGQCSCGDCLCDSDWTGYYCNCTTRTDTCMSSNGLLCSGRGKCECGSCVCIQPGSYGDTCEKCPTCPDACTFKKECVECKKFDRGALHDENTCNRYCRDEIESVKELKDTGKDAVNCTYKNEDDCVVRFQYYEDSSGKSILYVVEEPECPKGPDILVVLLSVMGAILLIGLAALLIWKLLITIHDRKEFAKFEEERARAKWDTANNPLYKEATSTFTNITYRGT
This experiment was carried out based on the method described in […].
Purified human αvβ3 integrin (Chemicon International, Inc., USA) was adjusted to a concentration of 1 μg/ml with TBS^++ [20 mM Tris-HCl (pH 7.4), 150 mM NaCl, 1 mM CaCl2, 1 mM MgCl2], and the diluted solution was added to plates (Labsystems, Finland) at 50 μl/well. The plate was left at 4° C. overnight for immobilization of the αvβ3 integrin. All subsequent steps were done at 25° C., and the procedure for each well was described hereafter.
The solution was discarded, and then 200 μl of TBS^++ containing 1% BSA (Wako Pure Chemical Industries, Ltd., Japan) was added to the well and left for one hour for blocking. The well was washed with a wash solution (TBS^++ containing 0.01% Tween 20) 4 times, and 50 μl of a reaction solution (TBS^++ containing 0.1% BSA and 0.01% Tween 20) was added to the well. Subsequently, 25 μl of a test compound solution adjusted to each concentration with the reaction solution was added, and then mixed with 25 μl of biotinylated (Amersham Pharmacia Biotech, UK) human vitronectin (Gibco BRL, USA) adjusted to 0.4 μg/ml with the reaction solution. The mixture was reacted for 2 hours. After washing 4 times with the wash solution, 100 μl of peroxidase-labeled streptoavidin (Amersham Pharmacia Biotech, UK) diluted 1:500 with the reaction solution was added to the well. Following 30 minutes reaction, the well was washed 4 times with the wash solution, and 100 μl of a TMB substrate solution (Bio-Rad Laboratories, USA) was added to the well. Color was developed for 20 minutes and the reaction was stopped by adding 100 μl of 0.5 M sulfuric acid.
The absorbance at 450 nm was measured with a plate reader (Molecular Devices, USA) to obtain a total binding. To obtain a nonspecific binding, EDTA adjusted to 20 mM with the reaction solution was added instead of the test compound solution. A specific binding was calculated by subtracting the nonspecific binding from the total binding.

The target of a further test is T1, αIIbβ3 integrin (Homo sapiens, UniProt P05106+P08514).
T1 construct: from tissue; host or cells: human platelets (Triton X-100 lysate)
T1 sequence (P08514 32-887 limits assumed): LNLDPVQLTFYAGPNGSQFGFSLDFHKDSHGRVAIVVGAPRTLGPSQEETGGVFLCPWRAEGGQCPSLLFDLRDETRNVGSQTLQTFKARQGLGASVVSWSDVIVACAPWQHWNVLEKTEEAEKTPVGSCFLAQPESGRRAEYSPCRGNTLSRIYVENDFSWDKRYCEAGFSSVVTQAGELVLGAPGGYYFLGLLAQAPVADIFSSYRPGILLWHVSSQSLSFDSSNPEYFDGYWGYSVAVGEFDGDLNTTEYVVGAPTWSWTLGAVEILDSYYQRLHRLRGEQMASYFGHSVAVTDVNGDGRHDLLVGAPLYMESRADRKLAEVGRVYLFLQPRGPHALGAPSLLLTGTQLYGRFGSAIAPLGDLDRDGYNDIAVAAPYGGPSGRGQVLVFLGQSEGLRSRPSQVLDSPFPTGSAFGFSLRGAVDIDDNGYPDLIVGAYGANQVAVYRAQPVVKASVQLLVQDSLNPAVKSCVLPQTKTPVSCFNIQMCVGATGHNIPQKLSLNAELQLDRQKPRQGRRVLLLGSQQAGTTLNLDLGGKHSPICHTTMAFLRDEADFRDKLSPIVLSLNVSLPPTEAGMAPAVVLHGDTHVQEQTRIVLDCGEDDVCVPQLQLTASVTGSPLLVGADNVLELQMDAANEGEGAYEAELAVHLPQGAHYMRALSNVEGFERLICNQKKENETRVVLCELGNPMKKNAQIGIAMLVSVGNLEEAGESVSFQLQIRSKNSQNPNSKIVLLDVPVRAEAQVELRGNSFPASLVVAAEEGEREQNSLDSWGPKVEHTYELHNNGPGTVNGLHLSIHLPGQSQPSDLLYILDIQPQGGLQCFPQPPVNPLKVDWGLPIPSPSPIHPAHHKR
T1 sequence (P08514 891-1039 partner limits assumed): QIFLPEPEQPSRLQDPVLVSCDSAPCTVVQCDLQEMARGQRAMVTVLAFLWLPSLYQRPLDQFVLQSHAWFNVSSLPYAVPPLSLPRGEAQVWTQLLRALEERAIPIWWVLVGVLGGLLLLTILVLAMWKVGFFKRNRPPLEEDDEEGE
T1 sequence (P05106 27-788): as the sequence (P05106 27-788) above
Kind of test: Assay for the inhibition of αIIbβ3 integrin binding (fibrinogen as ligand, integrin captured from platelet lysate). Particulars: inhibition of specific binding of biotinylated fibrinogen to αIIbβ3 integrin from human platelet lysate. The protocol:
Experiment 2: Assay for the Inhibition of αIIbβ3 Integrin Binding
This experiment was carried out based on the method described in Thromb. Haemostasis, 75, 339 (1996), Blood, 93, 2559 (1999), using fibrinogen as a ligand. According to the method described in the above literatures, assay for the inhibition of αIIbβ3 integrin binding can be achieved by capturing αIIbβ3 integrin from platelet lysate with the use of an activated antibody against αIIbβ3 integrin.
Human platelets were isolated in a conventional manner. At 25° C., the isolated platelets were adjusted to a concentration of 1.25×10^9/ml with TBS+[50 mM Tris-HCl (pH 7.4), 150 mM NaCl, 2 mM CaCl2], and then ⅛ volume of TBS^+ containing 2 mM leupepsin and 10 mM PMSF was added and stirred gently. Nest, 1/9 volume of TBS+ containing 10% Triton X-100 was added and stirred gently. After standing on ice for 30 minutes, a platelet lysate was prepared from the mixture by discarding the insoluble fraction with centrifugation (10,000 g, 15 minutes).
Anti-mouse IgG goat antibody (Jackson Immunoresearch Laboratories, Inc., USA) was adjusted to a concentration of 5 μg/ml with sodium carbonate buffer (pH 9.6) and added to plates at 50 μl/well. The plate was left at 4° C. overnight for immobilization of the antibody. All subsequent steps were done at 25° C., and the procedure for each well was described hereafter.
The well was washed once with TBS^+, and then 200 μl of TBS^+ containing 5% BSA was added to the well and left for one hour for blocking. The well was washed with a reaction solution (TBS^+ containing 0.1% BSA and 0.05% Triton X-100) 4 times, and then 50 μl of anti-human αIIbβ3 integrin activated monoclonal antibody (TAKARA SHUZO CO., LTD, Japan, PT25-2 strain) adjusted to 5 μg/ml with the reaction solution was added to the well. After one hour reaction, the well was washed 4 times with the reaction solution, and 50 μl of the platelet lysate diluted 1:2 with the reaction solution was added to the well. Following 2 hours reaction, the well was washed 4 times with the reaction solution, and 50 μl of the reaction solution was added to the well. Subsequently, 25 μl of a test compound solution adjusted to each concentration with the reaction solution was added, and then mixed with 25 μl of biotinylated fibrinogen (Calbiochem, Germany) adjusted to 2 μg/ml with the reaction solution. The mixture was reacted for one hour. After washing 4 times with the reaction solution, 100 μl of alkaline phosphatase-labeled streptoavidin (Gibco BRL, USA) diluted 1:500 with the reaction solution was added to the well. Following 30 minutes reaction, the well was washed 4 times with the wash solution. Next, 50 μl of the NaDPH solution (Invitrogen, former company name: Gibco BRL, USA) was added and reacted for 20 minutes, and then 50 μl of an amplification solution containing diaphorase and alcohol dehydrogenase (Invitrogen, former company name: Gibco BRL, USA) was added. Color was developed for 20 minutes and the reaction was stopped by adding 50 μl of 0.5 M sulfuric acid.
The absorbance at 495 nm was measured with a plate reader to obtain a total binding. To obtain a nonspecific binding, EDTA adjusted to 20 mM with the reaction solution was added instead of the test compound solution. A specific binding was calculated by subtracting the nonspecific binding from the total binding.

For the compound `O=C(N[C@@H](CNC(=O)C1CCC(c2cccc(NC3=NCCCN3)c2)CC1)C(=O)O)OCc1ccccc1` (single isomer, unassigned) [Ex. 151A], the IC50 was 0.074 nM at αvβ3 integrin and 37 nM at αIIbβ3 integrin.
Take `O=C(N[C@@H](CNC(=O)C1CCC(c2cccc(NC3=NCCCN3)c2)CC1)C(=O)O)OCc1ccccc1` (single isomer, unassigned) [Ex. 151B]: the figures for the IC50 at αvβ3 integrin and at αIIbβ3 integrin were 1.9 nM and 510 nM, respectively.
For `O=C(N[C@@H](CNC(=O)C1CCN(c2cccc(NC3=NCCCN3)c2)CC1)C(=O)O)OCc1ccccc1` [Ex. 2, (2S)-2-benzyloxycarbonylamino-3-[[1-[3-(1,4,5,6-tetrahydropyrimidin-2-yl)aminophenyl]piperidin-4-yl]carbonylamino]propanoic acid], in that order: 0.06 nM and 43 nM.
For `O=C(N[C@@H](CNC(=O)C1CCN(c2cccc(NC3=NCCN3)c2)CC1)C(=O)O)OCc1ccccc1` [Ex. 9, (2S)-2-benzyloxycarbonylamino-3-[[1-[3-(2-imidazolin-2-yl)aminophenyl]piperidin-4-yl]carbonylamino]propanoic acid], in that order: 0.059 nM and 54 nM.
In the same order, the values of `O=C(N[C@@H](CNC(=O)C1CCN(c2cccc(NC3=NCCCCN3)c2)CC1)C(=O)O)OCc1ccccc1` [Ex. 10, (2S)-2-benzyloxycarbonylamino-3-[[1-[3-(1H-4,5,6,7-tetrahydro-1,3-diazepin-2-yl)aminophenyl]piperidin-4-yl]carbonylamino]propanoic acid] are 0.075 nM and 74 nM.
`CC1(C)CN=C(Nc2cccc(N3CCC(C(=O)NC[C@H](NC(=O)OCc4ccccc4)C(=O)O)CC3)c2)NC1` [Ex. 11, (2S)-2-benzyloxycarbonylamino-3-[[1-[3-(5,5-dimethyl-1,4,5,6-tetrahydropyrimidin-2-yl)aminophenyl]piperidin-4-yl]carbonylamino]-propanoic acid]: the figures for the half-maximal inhibitory concentration (IC50) on αvβ3 integrin and on αIIbβ3 integrin were 0.14 nM and 87 nM, respectively.
For `O=C(N[C@@H](CNC(=O)C1CCN(c2cccc(NC3=NCC(F)(F)CN3)c2)CC1)C(=O)O)OCc1ccccc1` [Ex. 12, (2S)-2-benzyloxycarbonylamino-3-[[1-[3-(5,5-difluoro-1,4,5,6-tetrahydropyrimidin-2-yl)aminophenyl]piperidin-4-yl]carbonylamino]-propanoic acid], in that order: 0.057 nM and 95 nM.
For `O=C(N[C@@H](CNC(=O)C1CCN(c2cccc(NC3=NCC(F)CN3)c2)CC1)C(=O)O)OCc1ccccc1` (stereo partly drawn) [Ex. 13, (2S)-2-benzyloxycarbonylamino-3-[[1-[3-(5-fluoro-1,4,5,6-tetrahydropyrimidin-2-yl)aminophenyl]piperidin-4-yl]carbonylamino]-propanoic acid], in that order: 0.042 nM and 59 nM.
In the same order, the values of `CC(C)COC(=O)N[C@@H](CNC(=O)C1CCN(c2cccc(NC3=NCC(C)(C)CN3)c2)CC1)C(=O)O` [Ex. 18, (2S)-2-isobutoxycarbonylamino-3-[[1-[3-(5,5-dimethyl-1,4,5,6-tetrahydropyrimidin-2-yl)aminophenyl]piperidin-4-yl]carbonylamino]-propanoic acid] are 0.13 nM and 310 nM.
Consider `CC(C)COC(=O)N[C@@H](CNC(=O)C1CCN(c2cccc(NC3=NCC(F)CN3)c2)CC1)C(=O)O` (stereo partly drawn) [Ex. 19, (2S)-2-isobutoxycarbonylamino-3-[[1-[3-(5-fluoro-1,4,5,6-tetrahydropyrimidin-2-yl)aminophenyl]piperidin-4-yl]carbonylamino]-propanoic acid], for which the IC50 was found to be 0.032 nM at αvβ3 integrin and 100 nM at αIIbβ3 integrin.
As for `CC(C)COC(=O)N[C@@H](CNC(=O)C1CCN(c2cccc(NC3=NCC(O)CN3)c2)CC1)C(=O)O` (stereo partly drawn) [Ex. 20, (2S)-2-Isobutoxycarbonylamino-3-[[1-[3-(5-hydroxy-1,4,5,6-tetrahydropyrimidin-2-yl)aminophenyl]piperidin-4-yl]carbonylamino]-propanoic acid], the IC50 came out at 0.061 nM on αvβ3 integrin and 37 nM on αIIbβ3 integrin.
For `O=C(NCc1ccccc1)Nc1cccc(N2CCC(C(=O)NC[C@H](NC(=O)OCc3ccccc3)C(=O)O)CC2)c1` [Ex. 30, (2S)-3-{[1-[3-(benzylaminocarbonyl)aminophenyl]-piperidin-4-yl}carbonylamino]-2-(benzyloxycarbonylamino)propanoic acid], in that order: 5.1 nM and 4600 nM.
For `CC(C)COC(=O)N[C@@H](CCC(=O)N1CCN(c2cccc(NC3=NCC(C)(C)CN3)c2)CC1)C(=O)O` [Ex. 126], the IC50 on αvβ3 integrin stood at 0.38 nM. That is a sub-nanomolar value.
The same measure, in the same setting: in the case of `CC(C)COC(=O)N[C@@H](CCC(=O)N1CCN(c2cccc(NC3=NCC(F)CN3)c2)CC1)C(=O)O` (stereo partly drawn) [Ex. 127, (2S)-2-Isobutoxycarbonylamino-5-[4-[3-(5-fluoro-1,4,5,6-tetrahydropyrimidin-2-yl)aminophenyl]piperazin-1-yl]-5-oxopentanoic acid] it was 0.055 nM.
The same measure, in the same setting: in the case of `CC(C)COC(=O)N[C@@H](CCC(=O)N1CCN(c2cccc(NC3=NCC(O)CN3)c2)CC1)C(=O)O` (stereo partly drawn) [Ex. 128] it was 0.3 nM.
On the same count and under the same terms, in the case of `CCOC(=O)N[C@@H](CCC(=O)N1CCN(c2cccc(NC3=NCCCN3)c2)CC1)C(=O)O` [Ex. 136] it was 0.59 nM.
The compound `CC(C)COC(=O)N[C@@H](CCC(=O)N1CCN(c2cccc(NC3=NCCCN3)c2)CC1)C(=O)O` [Ex. 138, (2S)-2-isobutoxycarbonylamino-5-[4-[3-(1,4,5,6-tetrahydropyrimidin-2-yl)aminophenyl]piperazin-1-yl]-5-oxopentanoic acid] displayed an IC50 on αvβ3 integrin of 0.32 nM. This IC50 is about 1.8-fold lower than that of the compound before.
The same measure, in the same setting: with `O=C(Cc1ccccc1)N[C@@H](CCC(=O)N1CCN(c2cccc(NC3=NCCCN3)c2)CC1)C(=O)O` [Ex. 139] the figure was 6.8 nM.
Same read-out and setting: in the case of `CCNC(=O)N[C@@H](CCC(=O)N1CCN(c2cccc(NC3=NCCCN3)c2)CC1)C(=O)O` [Ex. 142] it was 3.6 nM; in that of `O=C(NCc1ccccc1)N[C@@H](CCC(=O)N1CCN(c2cccc(NC3=NCCCN3)c2)CC1)C(=O)O` [Ex. 143], 1.4 nM; in that of `O=C(N[C@@H](CCC(=O)N1CCN(c2cc(NC3=NCCCN3)ccc2F)CC1)C(=O)O)OCc1ccccc1` [Ex. 155, (2S)-2-benzyloxycarbonylamino-5-[4-[2-fluoro-5-(1,4,5,6-tetrahydropyrimidin-2-yl)aminophenyl]piperazin-1-yl]-5-oxopentanoic acid], 0.077 nM.
